Data on four compounds can be found in patent publication EP0388909A2, “Thiazole compounds, processes for the preparation thereof and pharmaceutical composition comprising the same” (FUJISAWA PHARMACEUTICAL CO., LTD., priority 1989, dated 1990).

Molecules are shown by their SMILES. Counter-ions that a name gives are not always drawn.

The target in experiment [1] is T1, cyclooxygenase (Oryctolagus cuniculus, UniProt O97554).
T1 construct: Washed rabbit PRP (900 µl) was preincubated with drug solution; endogenous in cells; host or cells: washed rabbit platelets (PRP)
T1 sequence (O97554 31-606): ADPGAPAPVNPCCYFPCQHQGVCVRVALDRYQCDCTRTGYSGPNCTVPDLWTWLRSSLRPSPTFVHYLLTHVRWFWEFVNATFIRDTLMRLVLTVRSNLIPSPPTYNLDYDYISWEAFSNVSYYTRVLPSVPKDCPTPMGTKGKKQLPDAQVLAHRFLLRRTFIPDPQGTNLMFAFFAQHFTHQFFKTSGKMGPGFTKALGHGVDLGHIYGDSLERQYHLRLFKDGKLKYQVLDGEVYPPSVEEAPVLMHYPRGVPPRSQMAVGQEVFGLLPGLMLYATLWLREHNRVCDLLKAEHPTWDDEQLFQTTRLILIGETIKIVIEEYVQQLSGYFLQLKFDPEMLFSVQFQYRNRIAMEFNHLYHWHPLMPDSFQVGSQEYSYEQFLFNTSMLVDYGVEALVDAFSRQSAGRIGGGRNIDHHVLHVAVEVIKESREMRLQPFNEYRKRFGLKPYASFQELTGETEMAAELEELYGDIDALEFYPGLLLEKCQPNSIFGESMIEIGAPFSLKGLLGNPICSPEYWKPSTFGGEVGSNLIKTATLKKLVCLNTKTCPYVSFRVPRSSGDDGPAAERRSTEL
The experiment can be described thus: Effect on malondialdehyde (MDA) production in rabbit platelets. The following applies: dose required to inhibit the production of malondialdehyde by 50%; washed rabbit PRP, arachidonic acid added; read-out: IC₅₀. It counts as cell-based. On the procedure:
Washed rabbit PRP (900 µl) was preincubated with drug solution (dissolved in dimethyl sulfoxide) (100 µl) at 37°C for 5 minutes. Then, 2.5 mM arachidonic acid solution (20 µl) was added to the reaction mixture. After 3 minutes, thiobarbiturate reagent (1000 µl) was added, and the reaction mixture was heated in a boiled water. After centrifugation at 1500 g for 10 minutes, the absorbance of suparnatant was measured at 532 nm. This test was carried out to see inhibitory activity of the test compound against the activity of cyclooxygenase. Activity of the test compound was expressed as IC₅₀ values i.e. doses required to inhibit the production of malondialdehyde by 50%.

Experiment [2] relates to PRP. The experiment can be described thus: Platelet aggregation ex vivo (arachidonic acid induced, PRP after oral dosing). It counts as in vivo. The note with it: Cavia porcellus, 6 h, Dose 1.0 mg/kg oral, blood collected six hours after administration, arachidonic acid final 50 µM as aggregation inducer, male Hartley guinea-pigs. On the procedure:
Male Hartley guinea-pigs weighing about 300 g were used after 24 hours fasting. Six hours after oral administration of the test compound or vehicle of test compound (control), blood was collected into a tube containing 0.1 vol. of 3.8% sodium citrate and prepared platelet rich plasma (PRP).
To the […] of PRP, 5 µl of arachidonic acid (final 50 µM) was added as an aggregation inducer. Aggregation was measured by using an aggregometer (NKK HEMA-TRACER 1).

Experiment [3] relates to isolated rat aorta. The experiment can be described thus: Relaxation effect on isolated rat aorta (KCl-induced contraction). The note with it: dose required to relax the isolated rat aorta by 50%; contraction induced by KCl 30 mM; maximum relaxation by 10⁻⁴M papaverine; read-out: ED₅₀. On the procedure: Helical strip of rat thoracic aorta was suspended in the organ bath containing Tyrode solution gassed with 95% O₂ - 5% CO₂ at 37°C under 0.5 g load. Contraction was induced by addition of KCℓ solution (final concentration was 30 mM). […] Activities of the test compound were expressed as ED₅₀ values i.e. doses required to relax the isolated rat aorta by 50%.

Experiment [4] relates to human washed platelets. The experiment can be described thus: Thrombin induced aggregation in human washed platelets. The format is cell-based. The following applies: Concentration 1.0 x 10⁻⁵ M; thrombin final conc. 0.3-0.5 U/ml. As to the method: Blood was drawn from healthy volunteers into a plastic tube containing 1/10 volume of 3.8% sodium citrate and centrifuged at 120 g for 10 minutes to obtain platelet rich plasma (PRP). An equal volume of 25 mM Tris-HCl buffer (pH 7.4) containing 130 mM NaCl and 1.5 mM EDTA (buffer A) was added to the PRP, mixed and centrifuged at 1500 g for 10 minutes. The platelet pellet was suspended in buffer A and centrifuged at 1500 g for 5 minutes. The platelets were resuspended in 25 mM Tris-HCl buffer (pH 7.4) containing 130 mM NaCl and 0.3 mM EDTA and recentrifuged at 1500 g for 5 minutes. The platelets were finally suspended in Tyrode solution containing 0.3 % bovine serum albumin and the platelet count was adjusted to 3 x 10⁸/ml. To 247.5 µl of platelet suspension, 2.5 µl of drug solution was added and incubated for 2 minutes at 37°C prior to addition of thrombin solution (final conc. 0.3-0.5 U/ml). Platelet aggregation was turbidometrically measured using a HEMA-TRACER 1.

In the case of `COc1ccc(-c2nc(CNC(C)=O)sc2-c2ccc(OC)cc2)cc1` [Example 1, 2-acetylaminomethyl-4,5-bis(4-methoxyphenyl)thiazole], in experiment [1], the IC50 worked out at 0.015 µM.

For `COc1ccc(-c2nc(CNC(=O)C3=NNC(=O)CC3)sc2-c2ccc(OC)cc2)cc1` [Example 15, 4,5-bis(4-methoxyphenyl)-2-{(6-oxo-1,4,5,6-tetrahydropyridazin-3-yl)carbonyiaminomethyl}thiazole], the inhibition (in general, the change of the read-out against control, counted positive when it falls) at 1 mg/kg in experiment [2] was 100%. The EC50 in experiment [3] is 7.3 µM.

On to `COc1ccc(-c2nc(CNC(=O)c3cccnc3)sc2-c2ccc(OC)cc2)cc1` [Example 19, 4,5-bis(4-methoxyphenyl)-2-(nicotinoylaminomethyl)thiazole hydrochloride], for which the EC50 in experiment [3] was 8.2 µM.

For the compound `CNC(=O)NCc1nc(-c2ccc(OC)cc2)c(-c2ccc(OC)cc2)s1` [Example 24, 4,5-Bis(4-methoxyphenyl)-2-(3-methylureidomethyl)thiazole], in experiment [4], the “Inhibition of the aggregation (%)” value stood at 71.3%.
